How the values were obtained:
Type in all cases: in vivo
[1] = test system: sweet sensitive panelists; assay: Comparative sensory evaluation of sweetness enhancers in sweetener solution or water (Example 1)
Description: Comparative sensory evaluation of sweetness enhancers in 2 or 7% sucrose
The test samples contained the potential sweetness enhancers in 0% sucrose (water), 2% sucrose, or 7% sucrose, and control samples of 0%, 2% and 7% sucrose without any additive. The sensory evaluations were conducted as follows. All samples were presented at ambient temperature in 15 ml aliquots to panels consisting of 5-9 sweet sensitive subjects of varying sweet sensitivity. After tasting each sample, the mouth was rinsed thoroughly with water at ambient temperature prior to tasting the next sample. The sucrose positive control (2% or 7%) was presented first and served as the sweetness reference to which all sweetness enhancer/sucrose combinations were directly compared.
One tasting sequence included tasting the sucrose control first, rinsing with water, tasting the sweetness enhancer/sucrose sample, rinsing with water followed by tasting the sucrose control again. Once the sequence was completed, each panelist chose the sample which was sweeter and evaluated the sweetness of each sample relative to one another.
In a second tasting sequence, this same procedure was followed for the water negative control versus the sweetness enhancer/water samples to determine the sweet taste due to the sweetness enhancer itself at each tested concentration.
Panelists evaluated the sweetness of the sweetness enhancer in water for each concentration. For their evaluation, panelists were allowed to compare any perceived sweetness of the sweetness enhancer to the 2% or 7% sucrose control to determine the relative intensity of sweetness. Mild sweet taste corresponds to the taste of 2% sucrose, strong sweet taste corresponds to the taste of 7% sucrose.
Alternatively to sucrose, the evaluation may be performed with another sweetener, for example, high fructose (55%) corn syrup (HFCS, containing 55% fructose and 45% glucose), erythritol, sucralose, aspartame, or acesulfame potassium (AceK).

[2] = test system: sweet sensitive panelists; assay: Paired comparison of sweetness enhancers in water versus sucrose (Example 4, modified)
Description: Paired Comparisons of Sweetness Enhancers and Mixtures Thereof in Water and 7% Sucrose
Samples of sweetness enhancers were prepared in water or 7% sucrose. One, two or three sweetness enhancers were used in a sample. All samples were presented to panelists at ambient temperature. The sensory evaluation was conducted using a paired comparison method. […] Samples were paired randomly and presented in unidentifiable pairs of two (left and right) to the panelists in random order. The sample on the left was tasted first, followed by rinsing the mouth with water, then tasting the sample on the right. Once completing the sequence, each panelist ranked the pair of samples for sweetness then evaluated samples with respect to one another with the following descriptors (in ascending order): […]

[3] = test system: sweet sensitive subjects; assay: Sweetness quality evaluation (time of onset, localization, duration)
Description: (§1) Rebaudioside A (99%+, purified from plant extract, Sweet Aloha Farms, LLC) (1 ppm, 10 ppm, 20 ppm, 30 ppm) in 2% sucrose samples was evaluated for the qualities of the sweetness of the samples (time of onset, localization, duration). The sensory evaluations were conducted as follows. All samples were presented at ambient temperature in 15 ml aliquots and presented blindly to sweet sensitive subjects of varying sweet sensitivity. Subjects tasted the samples and were asked to evaluate the quality of sweetness. Sucrose solutions (2% and 7%) were presented as references.
Rebaudioside A (99%+, purified from plant extract, Sweet Aloha Farms, LLC) (1 ppm, 10 ppm, 20 ppm, 30 ppm) in 7% sucrose samples were evaluated for the qualities of the sweetness of the samples (time of onset, localization, duration). The sensory evaluations were conducted as follows. All samples were presented at ambient temperature in 15 ml aliquots and presented blindly to sweet sensitive subjects of varying sweet sensitivity. Subjects tasted the samples and were asked to evaluate the quality of the sweetness. Sucrose solutions (2% and 7%) were presented as references to evaluate the sweetness of the rebaudioside A samples.
as §1, with “Stevioside extract (95%+,” for “Rebaudioside A (99%+,”, “Apin Chemicals) (20” for “Sweet Aloha Farms, LLC) (1 ppm, 10 ppm, 20”, “30 ppm, 40 ppm, 50” for “30”, “ppm) was evaluated” for “ppm)”, “sucrose” for “sucrose samples was evaluated”, “sweetness qualities.” for “quality of sweetness.”
Stevioside (20 ppm, 30 ppm, 40 ppm, 50 ppm) was evaluated in 7% sucrose for the qualities of the sweetness of the samples (time of onset, localization, duration). The sensory evaluations were conducted as follows. All samples were presented at ambient temperature in 15 ml aliquots and presented blindly to sweet sensitive subjects of varying sweet sensitivity. Subjects tasted the samples and were asked to evaluate the sweetness qualities. Sucrose solutions (2% and 7%) were presented as references to evaluate the sweetness of the stevioside samples.

Structure (SMILES): C=C1C[C@@]23CC[C@H]4[C@@](C)(CCC[C@@]4(C)C(=O)O[C@@H]4O[C@H](CO)[C@@H](O)[C@H](O)[C@H]4O)[C@@H]2CC[C@]1(O[C@@H]1O[C@H](CO)[C@@H](O)[C@H](O)[C@H]1O[C@@H]1O[C@H](CO)[C@@H](O)[C@H](O)[C@H]1O)C3 [Stevioside]
- Sensory evaluation of sweetness intensity ([1]; 20 ppm in 2% sucrose): notably sweeter than sucrose control
- Sensory evaluation of sweetness intensity ([1]; 20 ppm in 7% sucrose): notably sweeter than sucrose control
- Sensory evaluation of sweetness intensity ([1]; 20 ppm in water (Example 9A)): barely detectable sweetness
- Sensory evaluation of sweetness intensity ([1]; 20 ppm in water (Example 9B)): barely detectable sweetness
- Sensory evaluation of sweetness intensity ([1]; 30 ppm in 2% sucrose): much sweeter than sucrose control
- Sensory evaluation of sweetness intensity ([1]; 30 ppm in 7% sucrose): notably sweeter than sucrose control
- Sensory evaluation of sweetness intensity ([1]; 30 ppm in water (Example 9A)): very weak, late onsetting sweetness
- Sensory evaluation of sweetness intensity ([1]; 30 ppm in water (Example 9B)): very weak, late onsetting sweetness
- Sensory evaluation of sweetness intensity ([1]; 40 ppm in 2% sucrose): much sweeter than sucrose control
- Sensory evaluation of sweetness intensity ([1]; 40 ppm in 7% sucrose): much sweeter than sucrose control
- Sensory evaluation of sweetness intensity ([1]; 40 ppm in water (Example 9A)): weak late onsetting sweetness
- Sensory evaluation of sweetness intensity ([1]; 40 ppm in water (Example 9B)): weak sweetness, late onsetting sweetness
- Sensory evaluation of sweetness intensity ([1]; 50 ppm in 2% sucrose): much sweeter than sucrose control
- Sensory evaluation of sweetness intensity ([1]; 50 ppm in 7% sucrose): much sweeter than sucrose control
- Sensory evaluation of sweetness intensity ([1]; 50 ppm in water (Example 9A)): weak sweetness, faster onset than 40 ppm,
- Sensory evaluation of sweetness intensity ([1]; 50 ppm in water (Example 9B)): weak sweetness, faster onset than 40 ppm,
- Sensory evaluation of sweetness intensity ([1]; 60 ppm in 2% sucrose): substantially sweeter than sucrose control
- Sensory evaluation of sweetness intensity ([1]; 60 ppm in 7% sucrose): substantially sweeter than sucrose control
- Sensory evaluation of sweetness intensity ([1]; 60 ppm in water (Example 9A)): weak sweetness, faster onset than 50 ppm,
- Sensory evaluation of sweetness intensity ([1]; 60 ppm in water (Example 9B)): weak sweetness, faster onset than 50 ppm,
- Result of comparison ([2]; 20 ppm in water vs 0% sucrose): weakly sweeter
- Result of comparison ([2]; 20 ppm in water vs 0.5% sucrose): notably less sweet
- isointensity to sucrose solution ([2]; 30 ppm in water): 0.5 % sucrose
- Result of comparison ([2]; 30 ppm in water vs 0% sucrose): weakly sweeter
- Result of comparison ([2]; 30 ppm in water vs 0.5% sucrose): isosweet
- Result of comparison ([2]; 30 ppm in water vs 1% sucrose): significantly less sweet
- Result of comparison ([2]; 40 ppm in water vs 0.5% sucrose): notably sweeter
- Result of comparison ([2]; 40 ppm in water vs 1% sucrose): less sweet
- isointensity to sucrose solution ([2]; 40 ppm in water, by interpolation): 0.75 % sucrose
- isointensity to sucrose solution ([2]; 50 ppm in water): 1 % sucrose
- Result of comparison ([2]; 50 ppm in water vs 0.5% sucrose): sweeter
- Result of comparison ([2]; 50 ppm in water vs 1% sucrose): isosweet
- Result of comparison ([2]; 50 ppm in water vs 1.5% sucrose): significantly less sweet
- Result of comparison ([2]; 60 ppm in water vs 1% sucrose): notably sweeter
- Result of comparison ([2]; 60 ppm in water vs 1.5% sucrose): less sweet
- isointensity to sucrose solution ([2]; 60 ppm in water, by interpolation): 1.25 % sucrose
- Sensory evaluation of sweetness intensity (onset, localisation, duration) ([3]; 20 ppm in 2% sucrose): immediate onset, full mouth sweet, not lingering
- Sensory evaluation of sweetness intensity (onset, localisation, duration) ([3]; 20 ppm in 7% sucrose): immediate onset, full mouth sweet, not lingering
- Sensory evaluation of sweetness intensity (onset, localisation, duration) ([3]; 30 ppm in 2% sucrose): immediate onset, full mouth sweet, not lingering
- Sensory evaluation of sweetness intensity (onset, localisation, duration) ([3]; 30 ppm in 7% sucrose): immediate onset, full mouth sweet, not lingering
- Sensory evaluation of sweetness intensity (onset, localisation, duration) ([3]; 40 ppm in 2% sucrose): immediate onset, full mouth sweet, not lingering
- Sensory evaluation of sweetness intensity (onset, localisation, duration) ([3]; 40 ppm in 7% sucrose): immediate onset, full mouth sweet, not lingering

From patent US20210015134A1, “CONSUMABLES” (Givaudan S.A., priority 2006, published 2021)
